23 compounds from patent US20150259331A1, “PROTOZOAN PARASITE GROWTH INHIBITORS” (Northeastern University, priority 2014, published 2015) can be followed below.

Test [1] relates to T. brucei brucei Lister 427. The test is described as follows: Trypanosome replication assay. The settings on record: 48 h, values ±7%. The format is cell-based, Trypanosoma brucei brucei. The procedure:
Then 2 μL of DMSO (control) or different concentrations of drugs prepared from 200× DMSO stocks were added to the cultures. Cells were incubated at 37° C. for 48 h and counted with a hemocytometer. […] All experiments were repeated thrice in independent studies where each dose was administered in duplicate (total n=6). HepG2 Cell Toxicity Assay. The 384 well MTT cytotoxicity assay is a modification of the MTT method described by Ferrari et al. optimized for 384-well throughput, with modifications described below.

For a further test, the system named is T. cruzi. In words: T. cruzi growth inhibition. The format is cell-based, Trypanosoma cruzi.
A further test has as its system L. major amastigote. The test is described as follows: L. major amastigote assay. The format is cell-based.
In a further test the test system is L. major promastigote. In words: L. major promastigote assay. The format is cell-based.
The next test relates to P. falciparum C235. In words: P. falciparum C235 assay. The format is cell-based. As to conditions: read-out: P. falciparum C235 (EC50).
In the next test the test system is P. falciparum D6. The test is described as follows: P. falciparum D6 assay. The format is cell-based. The settings on record: strain D6.
The test system of another test is P. falciparum W2. In words: P. falciparum W2 assay. The format is cell-based.
Where [2] appears, read: concentration giving 50% inhibition of growth of T brucei brucei Lister 427 cells, read-out: Tbb EC50.
[3] abbreviates: Trypanosoma brucei, concentration giving 50% inhibition of growth of T brucei brucei Lister 427 cells, read-out: Tbb EC50.
Setting [4] is: Trypanosoma brucei, read-out: Tbb EC50, concentration giving 50% inhibition of growth of T brucei brucei Lister 427 cells.
[5] abbreviates: strain W2, read-out: P. falciparum W2 (EC50).
The mark [6] stands for this setting: Plasmodium falciparum, strain C235.
Where [7] appears, read: Plasmodium falciparum, strain W2, read-out: P. falciparum W2 (EC50).

Where two headings read alike, the source gives them in different places. Where only a bound is given, the exact number is not on record here.

Regarding `CCCS(=O)(=O)CCNCc1ccc(-c2ccc3ncnc(Nc4ccc(OCc5cccc(F)c5)c(Cl)c4)c3c2)o1` [Compound 3, reference compound], in test [1] (setting [2]), the EC50 was found to be 430 nM.
Regarding `CC(C)S(=O)(=O)CCNCc1ccc(-c2ccc3ncnc(Nc4ccc(OCc5cccc(F)c5)c(Cl)c4)c3c2)o1` [Compound 4, reference compound], the EC50 in test [1] (setting [2]) amounted to 480 nM.
Regarding `CS(=O)(=O)CCNCc1ccc(-c2ccc3ncnc(Nc4ccc(OCc5ccccc5)c(Br)c4)c3c2)o1` [Compound 7, reference compound], the EC50 in test [1] (setting [2]) is 560 nM.
The same measure, in the same setting: the value for `CS(=O)(=O)CCN(Cc1ccccc1)Cc1ccc(-c2ccc3ncnc(Nc4ccc(OCc5cccc(F)c5)c(Cl)c4)c3c2)o1` [Compound 9, reference compound] was 1510 nM.
Turning to `Cc1ccc(-c2ccc3ncnc(Nc4ccc(OCc5cccc(F)c5)c(Cl)c4)c3c2)c2ccccc12` [Compound 10b, N-(3-Chloro-4-((3-fluorobenzyl)oxy)phenyl)-6-(4-methylnaphthalen-1-yl)quinazolin-4-amine], the EC50 in test [1] (setting [3]) was 2270 nM.
For `CCNC(=O)c1ccc(-c2ccc3ncnc(Nc4ccc(OCc5cccc(F)c5)c(Cl)c4)c3c2)cc1F` [Compound 10c, 4-(4-4-((3-Chloro-4-((3-fluorobenzyl)oxy)phenyl)amino)-quinazolin-6-yl)-N-ethyl-2-fluorobenzamide], in test [1] (setting [2]), the EC50 was 3850 nM.
`Cc1nnc(-c2cccc(-c3ccc4ncnc(Nc5ccc(OCc6cccc(F)c6)c(Cl)c5)c4c3)c2)o1` [Compound 10d, N-(3-Chloro-4-((3-fluorobenzyl)oxy)phenyl)-6-(3-(5-methyl-1,3,4-oxadiazol-2-1)phenyl)quinazolin-4-amine]: the EC50 in test [1] (setting [2]) came out at 4210 nM.
Consider `O=C(NC1CC1)c1cccc(-c2ccc3ncnc(Nc4ccc(OCc5cccc(F)c5)c(Cl)c4)c3c2)c1` [Compound 10e, 3-(4-((3-Chloro-4-((3-fluorobenzyl)oxy)phenyl)amino)-quinazolin-6-yl)-N-cyclopropylbenzamide], for which the EC50 in test [1] (setting [3]) was 4500 nM.
Same read-out and setting: with `Fc1cccc(COc2ccc(Nc3ncnc4ccc(-c5cccc6ncccc56)cc34)cc2Cl)c1` [Compound 10f, N-(3-Chloro-4-((3-fluorobenzyl)oxy)phenyl)-6-(quinolin-5-yl)quinazolin-4-amine] the figure was 4530 nM; with `Fc1cccc(COc2ccc(Nc3ncnc4ccc(-c5ccccc5Oc5ccccc5)cc34)cc2Cl)c1` [Compound 10g, N-(3-Chloro-4-((3-fluorobenzyl)oxy)phenyl)-6-(2-phenoxyphenyl)quinazolin-4-amine], 5300 nM.
With `Fc1cccc(COc2ccc(Nc3ncnc4ccc(-c5cc6ccccc6s5)cc34)cc2Cl)c1` [Compound 10h, 6-(Benzo[b]thiopen-2-yl)-N-(3-chloro-4-((3-fluorobenzyl)-oxy)phenyl)quinazolin-4-amine], in test [1] (setting [2]), the EC50 worked out at 5980 nM.
With `Oc1ccc(-c2ccc3ncnc(Nc4ccc(OCc5cccc(F)c5)c(Cl)c4)c3c2)cc1` [Compound 10i, 4-(4-((3-Chloro-4-((3-fluorobenzyl)oxy)phenyl)amino)-quinazolin-6-yl)phenol], the EC50 in test [1] (setting [4]) came out at 6450 nM.
In the case of `O=c1[nH]cc(-c2ccc3ncnc(Nc4ccc(OCc5cccc(F)c5)c(Cl)c4)c3c2)c(=O)[nH]1` [Compound 10j], the EC50 in test [1] (setting [2]) worked out at 22600 nM.
As to `CC(C)(C)NS(=O)(=O)c1ccccc1-c1ccc2ncnc(Nc3ccc(OCc4cccc(F)c4)c(Cl)c3)c2c1` [Compound 10w, N-(tert-Butyl)-2-(4-((3-chloro-4-((3-fluorobenzyl)oxy)-phenyl)amino)quinazolin-6-yl)benzenesulfonamide], the EC50 in test [1] (setting [3]) worked out at 4660 nM; in test [1] (concentration giving 50% inhibition of growth of T brucei brucei Lister 427 cells, listed as NEU-620, read-out: Tbb EC50) it was 4700 nM; in the test with T. cruzi (Trypanosoma cruzi) it was 6400 nM.
As to `Cl.O=S(=O)(c1ccc(-c2ccc3ncnc(Nc4ccc(OCc5ccccc5F)c(Cl)c4)c3c2)cc1)N1CCOCC1` [Compound 20i], the “T. cruzi % inh at 10 μM” value in the test with T. cruzi (10 μM) is reported as 10%.
Regarding `Fc1cccc(COc2ccc(Nc3ncnc4ccc(-c5cccc(CN6CCOCC6)c5)cc34)cc2Cl)c1` [Compound 23c], the EC50 in the test with L. major amastigote amounted to 3000 nM; in the test on L. major promastigote, 3300 nM; in the test with P. falciparum C235 (strain C235) it was 290 nM; in the test with P. falciparum D6 it was 190 nM; in the test with P. falciparum W2 (setting [5]), 350 nM; in test [1] (setting [2]), 360 nM. Also, in the test on T. cruzi, the EC50 was 2400 nM.
As to `O=C(c1cccc(-c2ccc3ncnc(Nc4ccc(OCc5cccc(F)c5)c(Cl)c4)c3c2)c1)N1CCOCC1` [Compound 23e, (3-(4-((3-Chloro-4-((3-fluorobenzyl)oxy)phenyl)amino)-quinazolin-6-yl)phenyl)(morpholino)methanone], the EC50 with L. major amastigote (Leishmania major) was over 15000 nM; in the test with L. major promastigote (Leishmania major) it was 3000 nM; in the test with P. falciparum C235 (setting [6]), 1200 nM; in the test with P. falciparum D6 (Plasmodium falciparum), 760 nM; in the test with P. falciparum W2 (setting [7]), 1100 nM; in test [1] (setting [3]), 550 nM. This compound also came in with an EC50 in the test on T. cruzi (Trypanosoma cruzi) of 3500 nM.
Take `O=C(c1ccc(-c2ccc3ncnc(Nc4ccc(OCc5cccc(F)c5)c(Cl)c4)c3c2)cc1)N1CCOCC1` [Compound 23f, (4-(4-((3-Chloro-4-((3-fluorobenzyl)oxy)phenyl)amino)-quinazolin-6-yl)phenyl)(morpholino)methanone]: the EC50 in the test on L. major amastigote (Leishmania major) worked out at 1400 nM; in the test on L. major promastigote (Leishmania major), 850 nM; in the test on P. falciparum C235 (setting [6]) it was 610 nM; in the test with P. falciparum D6 (Plasmodium falciparum) it was 400 nM; in the test with P. falciparum W2 (setting [7]), 860 nM; in test [1] (setting [3]), 1210 nM. For the same compound, the EC50 in test [1] (concentration giving 50% inhibition of growth of T brucei brucei Lister 427 cells, listed as NEU-783, read-out: Tbb EC50) was determined as 1200 nM; in the test with T. cruzi (Trypanosoma cruzi) it was 2800 nM.
For the compound `Fc1cccc(COc2ccc(Nc3ncnc4ccc(-c5ccc(N6CCCCC6)cc5)cc34)cc2Cl)c1` [Compound 23h, N-(3-Chloro-4-((3-fluorobenzyl)oxy)phenyl)-6-(4-(piperidin-1-yl)phenyl)quinazolin-4-amine], the EC50 in the test on L. major amastigote (Leishmania major) was 5000 nM; with L. major promastigote (Leishmania major) it was over 15000 nM; in the test on P. falciparum C235 (Plasmodium falciparum), 1000 nM; in the test on P. falciparum D6 (Plasmodium falciparum), 580 nM; in the test with P. falciparum W2 (Plasmodium falciparum, W2, read-out: P. falciparum W2 (EC50)), 1200 nM; in test [1] (setting [4]), 380 nM. In the test with T. cruzi (Trypanosoma cruzi), this compound yielded an EC50 of 7200 nM.
On to `Fc1cccc(COc2ccc(Nc3ncnc4ccc(-c5cccc(CN6CCCCC6)c5)cc34)cc2Cl)c1` [Compound 23i], for which the EC50 in the test with L. major amastigote was 3500 nM; in the test with L. major promastigote it was 2500 nM; in the test on P. falciparum C235 (strain C235), 65 nM; with P. falciparum D6, 39 nM; with P. falciparum W2 (setting [5]), 73 nM; in test [1] (setting [2]), 650 nM. Besides, the EC50 in the test on T. cruzi came out at 1500 nM.
With `Fc1cccc(COc2ccc(Nc3ncnc4ccc(-c5ccc(CN6CCCCC6)cc5)cc34)cc2Cl)c1` [Compound 23j], the EC50 with L. major amastigote is 5500 nM; in the test on L. major promastigote, 8400 nM; in the test on P. falciparum C235 (strain C235), 91 nM; with P. falciparum D6, 68 nM; in the test on P. falciparum W2 (setting [5]), 110 nM; in test [1] (setting [2]), 1500 nM. The same compound showed an EC50 with T. cruzi of 3400 nM.
Consider `O=C(c1ccc(-c2ccc3ncnc(Nc4ccc(OCc5cccc(F)c5)c(Cl)c4)c3c2)cc1)N1CCCCC1` [Compound 23l, (4-(4-((3-Chloro-4-((3-fluorobenzyl)oxy)phenyl)amino)-quinazolin-6-yl)phenyl)(piperidin-1-yl)methanone], for which the EC50 with L. major amastigote (Leishmania major) came out at 2900 nM; in the test on L. major promastigote (Leishmania major), 1000 nM; in the test on P. falciparum C235 (setting [6]), 360 nM; in the test on P. falciparum D6 (Plasmodium falciparum) it was 250 nM; with P. falciparum W2 (setting [7]), 880 nM; in test [1] (setting [3]), 940 nM. The same compound registered an EC50 in the test on T. cruzi (Trypanosoma cruzi) of over 50000 nM.
In the case of `Fc1cccc(COc2ccc(Nc3ncnc4ccc(-c5cccc(N6CCNCC6)c5)cc34)cc2Cl)c1` [NEU-711], the results for the EC50 (in test [1] (setting [2]); in the test on T. cruzi) were 250 nM and 2200 nM, respectively.
